“Also recorded” adds a separate entry of the source.
What was measured:
[1] = system: bEND3 cells; assay: OGD-induced claudin-5 redistribution between subcellular fractions, Western blot; format: cell-based, Mouse; conditions: SB-3CT, 2 h OGD; Western blot of subcellular fractions
Method: OGD treatment. To mimic acute ischemia-like conditions in vitro, bEND3 cells were exposed to OGD for 2 h as we described previously (Furuichi et al., 2005). In brief, confluent bEND3 cells were subjected to an ischemic injury by transferring cultures to glucose free medium (DMEM without glucose) pre-equilibrated with 95% N2 and 5% CO2. Cells were then incubated in a humidified airtight chamber (Billups-Rothberg Inc.) equipped with an air lock and flushed with 95% N2 and 5% CO2 for 15 min. The chamber was then sealed and kept at 37° C. for another 105 min. The oxygen concentration was below 0.2% as monitored by an oxygen analyzer (Sable Systems). Control cultures were incubated with normal DMEM medium without FBS for 2 h at 37° C. in 95% air and 5% CO2. Immediately after OGD treatment, the conditioned media (CM) and cells were collected separately for further analyses.
Preparation of total cell lysate, subcellular fractions. To reveal a redistribution of MMP-2/9, Caveolin-1 (Cav-1) and TJ proteins in OGD-treated bEnd3 cells, three subcellular fractions including membranous, cytosolic, and cytoskeletal fractions were extracted using ProteoExtract Subcellular Proteome Extraction Kit (Calbiochem) according to manufacturer's instruction. […]

[2] = system: bEND3 cells; assay: Immunostaining of occludin in OGD-treated bEND3 cells (confocal); format: cell-based, Mouse
Method: (§1) Cell culture. Mouse brain microvascular endothelial cells bEND3 (American Type Culture Collection) were grown as a monolayer in DMEM with 15% fetal bovine serum (FBS), 100 U/ml penicillin and 100 μg/ml streptomycin at 37° C. in a humidified incubators with 5% CO2 and 95% room air. The cells were subcultured into 60 mm dishes coated with type I collagen (Nakamuta et al., 2005) and allowed to grow to confluence before exposure to OGD for 2 h. After OGD treatment, cell toxicity was measured by lactate dehydrogenase (LDH) assay using a CytoTox 96 Non-Radioactive Cytotoxicity Assay Kit (Promega). Besides endothelial cells, we also tested the effect of OGD on MMP-2/9 secretion in two mouse neural cell lines, C8-D1A (astrocyte) and […]. Both cell lines were purchased from American Type Culture Collection. C8-D1A cells and SH-SY5Y cells were cultured in DMEM or DMEM/F12 (1:1) (Sigma) containing 10% FBS, 100 U/ml penicillin and 100 μg/ml streptomycin, respectively. These cells were allowed to grow to 80-90% confluence before exposure to 2-h OGD treatment.
(§2) OGD treatment. To mimic acute ischemia-like conditions in vitro, bEND3 cells were exposed to OGD for 2 h as we described previously (Furuichi et al., 2005). […] The oxygen concentration was below 0.2% as monitored by an oxygen analyzer (Sable Systems). […]

[3] = system: bEND3 cells; assay: OGD-induced occludin degradation in bEND3 cells, Western blot of total cellular extracts; format: cell-based, Mouse
Method: as §1, §2

[4] = tPA thrombolysis, cited from earlier work
[5] = target: T1, occludin (UniProt Q61146)
T1 sequence: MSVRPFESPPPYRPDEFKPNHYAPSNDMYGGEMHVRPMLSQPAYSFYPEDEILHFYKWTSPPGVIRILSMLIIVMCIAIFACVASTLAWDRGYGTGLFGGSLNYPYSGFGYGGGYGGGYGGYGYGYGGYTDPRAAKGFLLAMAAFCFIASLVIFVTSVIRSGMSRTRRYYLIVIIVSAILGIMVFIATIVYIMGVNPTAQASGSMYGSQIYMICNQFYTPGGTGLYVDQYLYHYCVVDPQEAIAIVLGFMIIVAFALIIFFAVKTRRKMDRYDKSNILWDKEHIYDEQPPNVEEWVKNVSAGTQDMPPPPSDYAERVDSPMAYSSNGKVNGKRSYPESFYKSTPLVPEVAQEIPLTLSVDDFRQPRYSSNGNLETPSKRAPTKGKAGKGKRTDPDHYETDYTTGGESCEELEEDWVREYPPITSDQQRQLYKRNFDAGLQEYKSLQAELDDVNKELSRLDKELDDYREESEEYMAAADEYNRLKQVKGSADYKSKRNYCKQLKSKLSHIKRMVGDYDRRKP

In the case of `O=S(=O)(CC1CS1)c1ccc(Oc2ccccc2)cc1` (centres unmarked) [SB-3CT], the “OGD-induced claudin-5 redistribution between subcellular fractions” value [1] is reported as “had no effect on its redistribution between subcellular fractions; also recorded: had no effect on OGD-induced claudin-5 redistribution”, the “occludin immunostaining reduction in OGD-treated cells” value ([2]; SB-3CT pretreatment, 2 h OGD, confocal microscopy) is reported as “completely inhibited occludin reduction in OGD-treated cells” and the “occludin immunostaining in control cells” value ([2]; SB-3CT-treated control cells vs vehicle-treated control cells) is reported as “slight stronger immunostaining (brighter fluorescence) for occludin”. For the same compound, the “OGD-induced occludin degradation (occludin protein in total cellular extracts)” value ([3]; SB-3CT 10 μM, 2 h before and during 2 h OGD, Western blot, vs vehicle (DMSO) plus OGD) was “completely abolished OGD-induced occludin reduction; also recorded: completely inhibited OGD-induced occludin degradation” and the “occludin level in control (non-OGD) bEND3 cells” value ([3]; SB-3CT-treated control cells compared to vehicle-treated cells (DMSO)) was “slight increase (not statistically significant) in occludin level”.

In the case of “tPA: tissue plasminogen activator, the only FDA-approved therapy for acute ischemic stroke”, the “mortality rate in stroke patients who have such bleeding” value ([4]; patients with symptomatic ICH) is listed as 50% and the “increase in the incidence of symptomatic ICH” value ([4]; stroke patients) is listed as 10 fold.

In the case of active MMP-9, the “occludin degradation in bEND3 extracts” value [5] is reported as “active MMP-9-induced occludin degradation”.

From patent publication US10591491B1, “Blood biomarker for early blood brain barrier disruption in ischemic stroke” (STC.UNM, priority 2011, dated 2020)
